“And” between values parts separate entries of the source, which are not always exact repeats. Identical values can stand only once. Like-named read-outs stand apart in the source and are kept apart here. Blank lines part the entries; values can stand above or below the compound they belong to.
Legend:
LNCap cells = experiment: In vitro IC50 of unlabeled compounds with LNCap cells; assay type: cell-based
Excerpt: Further compounds according to the invention are those of the DATA.QS.PSMA type, the structure of which corresponds to the other compounds listed, with the DATA chelator enabling simpler and milder labeling. In the synthesis shown in FIG. 37, a yield of about 70% is achieved. In the case of radioactive labeling with ^68Ga, a yield of more than 95% is achieved (FIG. 38).

tumor [1] = experiment: In vivo PET comparison of DATA.QS.PSMA with PSMA-11 (MIP, time/activity curves)
Excerpt: Furthermore, compounds of the type DATA.QS.PSMA were compared in vivo with PSMA-11 in the same animal model.

tumor [2] = experiment: Ex vivo activities of 68Ga-DATA.QS.PSMA and 68Ga-PSMA-11; assay type: in vivo; conditions: ± SD
Excerpt: The results of ex vivo investigations (FIGS. 41-43) are in agreement with the in vivo observations.

PREP = molecular target: T1, PREP (Homo sapiens, UniProt P48147); experiment: PREP IC50 using N-succinyl-Gly-Pro-AMC; assay type: biochemical; conditions: substrate N-succinyl-Gly-Pro-AMC
T1 sequence (P48147 1-710): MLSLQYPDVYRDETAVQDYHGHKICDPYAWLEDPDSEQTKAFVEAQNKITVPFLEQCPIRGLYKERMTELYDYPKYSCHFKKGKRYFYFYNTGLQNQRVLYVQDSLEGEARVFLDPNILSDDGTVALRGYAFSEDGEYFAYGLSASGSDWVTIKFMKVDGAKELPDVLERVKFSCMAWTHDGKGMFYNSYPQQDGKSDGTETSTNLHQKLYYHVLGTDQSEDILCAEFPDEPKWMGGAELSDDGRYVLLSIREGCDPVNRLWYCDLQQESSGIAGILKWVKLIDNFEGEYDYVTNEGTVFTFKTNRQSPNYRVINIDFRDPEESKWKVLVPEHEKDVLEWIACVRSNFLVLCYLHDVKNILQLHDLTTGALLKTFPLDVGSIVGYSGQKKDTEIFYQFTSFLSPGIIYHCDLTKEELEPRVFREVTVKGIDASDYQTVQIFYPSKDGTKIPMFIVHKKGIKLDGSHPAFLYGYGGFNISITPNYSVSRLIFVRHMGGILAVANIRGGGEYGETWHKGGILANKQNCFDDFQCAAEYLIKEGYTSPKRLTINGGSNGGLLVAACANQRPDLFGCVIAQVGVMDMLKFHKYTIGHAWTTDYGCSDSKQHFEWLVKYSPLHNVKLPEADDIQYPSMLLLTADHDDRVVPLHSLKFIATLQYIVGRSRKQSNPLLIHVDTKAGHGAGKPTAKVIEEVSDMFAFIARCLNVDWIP
Experimental: (§1) The FAP IC50 values were measured using Z-Gly-Pro-7-amino-4-methylcoumarin (AMC). The PREP IC50 values were determined using N-succinyl-Gly-Pro-AMC.

FAP = molecular target: T2, FAP (Homo sapiens, UniProt Q12884); experiment: FAP IC50 using Z-Gly-Pro-7-amino-4-methylcoumarin (AMC); assay type: biochemical; conditions: for Selectivity index (FAP/PREP): from IC50 FAP and IC50 PREP; for IC50: substrate Z-Gly-Pro-AMC
T2 sequence (Q12884 1-760): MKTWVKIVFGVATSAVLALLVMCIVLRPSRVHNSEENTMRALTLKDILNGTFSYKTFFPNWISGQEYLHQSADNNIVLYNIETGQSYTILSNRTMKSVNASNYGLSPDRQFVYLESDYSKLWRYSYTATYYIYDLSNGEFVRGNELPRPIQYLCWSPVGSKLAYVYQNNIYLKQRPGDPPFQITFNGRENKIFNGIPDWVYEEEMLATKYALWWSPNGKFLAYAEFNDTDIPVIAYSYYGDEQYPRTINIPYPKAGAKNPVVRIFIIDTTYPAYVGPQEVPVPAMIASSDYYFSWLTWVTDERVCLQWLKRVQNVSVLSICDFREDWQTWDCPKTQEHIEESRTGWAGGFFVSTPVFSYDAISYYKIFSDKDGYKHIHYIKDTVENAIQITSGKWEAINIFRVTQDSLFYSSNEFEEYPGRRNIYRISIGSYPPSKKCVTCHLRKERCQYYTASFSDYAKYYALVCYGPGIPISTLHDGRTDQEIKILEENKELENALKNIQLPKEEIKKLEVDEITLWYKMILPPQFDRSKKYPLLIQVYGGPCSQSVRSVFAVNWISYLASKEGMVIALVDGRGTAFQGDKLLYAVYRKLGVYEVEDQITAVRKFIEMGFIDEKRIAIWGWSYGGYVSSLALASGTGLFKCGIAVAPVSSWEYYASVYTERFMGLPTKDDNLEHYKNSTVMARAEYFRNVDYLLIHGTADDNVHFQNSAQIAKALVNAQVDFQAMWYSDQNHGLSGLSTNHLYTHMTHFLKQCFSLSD
Experimental: as §1

tumor tissue = experiment: In vivo and ex vivo investigation of TRAP.QS.PSMA radiotracer; conditions: ex vivo, compared to [68Ga]Ga-PSMA-11
Experimental: FIG. 31a-b, 32-36 show the synthesis and measurement results for radiolabeling, stability and in vivo investigations of the radiotracer [^68Ga]Ga-TRAP.QS.PSMA. […] The in vivo studies were carried out with ^68Ga and ^64Cu. From the images it can be seen that, compared to Examples 8 and 10, the accumulation in the kidneys is […] for both radiotracers.

LNCaP tumor = conditions: NMRI nu/nu nude, mouse, in vivo

- IC50 (LNCap cells): 51.5 nM and 51.1 nM
SMILES: CN(CC(=O)O)C1(CCCCC(=O)NCCNc2c(NCCCCC(NC(=O)NC(CCC(=O)O)C(=O)O)C(=O)O)c(=O)c2=O)CN(CC(=O)O)CCN(CC(=O)O)C1 (stereo not shown) [DATA.QS.PSMA]

- IC50 (LNCap cells; Homo sapiens): 15.1 nM
- SUV Leber (LNCaP tumor): 0.29
- SUV Nieren (LNCaP tumor): 0.27
- SUV Tumor (LNCaP tumor): 0.73
SMILES: O=C(O)CC[C@H](NC(=O)N[C@@H](CCCCNC(=O)[C@H](Cc1ccc2ccccc2c1)NC(=O)[C@H]1CC[C@H](CNC(=O)CN2CCN(CC(=O)O)CCN(CC(=O)O)CCN(CC(=O)O)CC2)CC1)C(=O)O)C(=O)O [PSMA-617]

More lines, now with the values behind:

SMILES: CN(CC(=O)O)C1(CCCCC(=O)NCCNc2c(NCCCCC(NC(=O)NC(CCC(=O)O)C(=O)O)C(=O)O)c(=O)c2=O)CN(CC(=O)O)CCN(CC(=O)O)C1.[68Ga+3] (stereo not shown) [^68Ga.DATA.QS.PSMA]
- accumulation in the tumor (tumor [1]; MIP images): high accumulation
- excretion via the kidneys (tumor [1]; first hour, compared with [68Ga]-PSMA-11, time/activity curves): significantly faster
- Ex vivo activity LN (tumor [2]; LN): 0.35 ± 0.20 % ID/g
- Ex vivo activity blood (tumor [2]; blood): 0.50 ± 0.19 % ID/g
- Ex vivo activity bone (tumor [2]; bone): 0.15 ± 0.03 % ID/g
- Ex vivo activity heart (tumor [2]; heart): 0.17 ± 0.06 % ID/g
- Ex vivo activity kidney left (tumor [2]; kidney left): 6.59 ± 2.45 % ID/g
- Ex vivo activity kidney right (tumor [2]; kidney right): 6.23 ± 2.39 % ID/g
- Ex vivo activity liver (tumor [2]; liver): 0.21 ± 0.04 % ID/g
- Ex vivo activity lung (tumor [2]; lung): 0.59 ± 0.27 % ID/g
- Ex vivo activity muscle (tumor [2]; muscle): 0.09 ± 0.05 % ID/g
- Ex vivo activity salivary glands (tumor [2]; salivary glands): 0.19 ± 0.07 % ID/g
- Ex vivo activity small intestine (tumor [2]; small intestine): 0.31 ± 0.12 % ID/g
- Ex vivo activity spleen (tumor [2]; spleen): 0.54 ± 0.22 % ID/g
- Ex vivo activity tumor (tumor [2]; tumor): 4.65 ± 0.58 % ID/g

SMILES: CN(CC(=O)O)C1(CCCCC(=O)NCCNc2c(NCCCCOc3ccc4nccc(C(=O)NCC(=O)N5CC(F)(F)C[C@H]5C#N)c4c3)c(=O)c2=O)CN(CC(=O)O)CCN(CC(=O)O)C1.[Ga+3] [DATA5m.QS.FAPi - natGa]
- IC50 (PREP): 4700 ± 300 nM
- Selectivity index (FAP/PREP) (FAP): 6714
- IC50 (FAP): 0.7 ± 0.1 nM

SMILES: CN(CC(=O)O)C1(CCCCC(=O)NCCNc2c(NCCCCOc3ccc4nccc(C(=O)NCC(=O)N5CC(F)(F)C[C@H]5C#N)c4c3)c(=O)c2=O)CN(CC(=O)O)CCN(CC(=O)O)C1 [DATA^5m.QS.FAPi - uncomplexed]
- IC50 (PREP): 1690 ± 90 nM
- Selectivity index (FAP/PREP) (FAP): 2113
- IC50 (FAP): 0.8 ± 0.2 nM

SMILES: O=C(O)CCC(NC(=O)NC(CCCCNc1c(NCCCOCCOCCOCCCNC(=O)CCP(=O)(O)CN2CCN(CP(=O)(O)CCC(=O)NCCCOCCOCCOCCCNc3c(NCCCCC(NC(=O)NC(CCC(=O)O)C(=O)O)C(=O)O)c(=O)c3=O)CCN(CP(=O)(O)CCC(=O)NCCCOCCOCCOCCCNc3c(NCCCCC(NC(=O)NC(CCC(=O)O)C(=O)O)C(=O)O)c(=O)c3=O)CC2)c(=O)c1=O)C(=O)O)C(=O)O.[68Ga+3] (stereo not shown) [[^68Ga]Ga-TRAP.QS.PSMA]
- accumulation in the kidneys (tumor tissue): noticeably decreased
- accumulation in tumor tissue (tumor tissue): elevated

From patent publication US11833229B2, “Labeling precursors with squaric acid coupling” (SCV—SpezialChemikalienVertrieb GmbH, priority 2019, dated 2023)
